# According to patent publication US20120029187A1, “HALOALKYLSULFONANILIDE DERIVATIVE” (Nissan Chemical Industries, Ltd., priority 2009, published 2012):
# Key:
# Type in all cases: in vivo
# bulrush [1] = test: Test Example 2: herbicidal effects during the vegetation period under submerged conditions; conditions: treatment during the vegetation period under submerged conditions; dose 2.52 g/a
# Summary of the method: (§1)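 Barnyardgrass, bulrush and ducksalad were co-sown in alluvial soil flooded to 4 cm and grown in a greenhouse at 25 to 30° C. At the 1- or 2-leaf stage, water-diluted emulsifiable concentrates went onto the water surface at set doses (g/a). Herbicidal effect was scored three weeks later on a graded scale.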
# barnyardgrass [2] = test: as above; conditions: treatment during the vegetation period under submerged conditions; dose 2.52 g/a
# Summary of the method: as §1
# ducksalad [3] = test: as above; conditions: treatment during the vegetation period under submerged conditions; dose 2.52 g/a
# Summary of the method: as §1
# large crabgrass [4] = test: Test Example 3: herbicidal effects in soil treatment; conditions: dose 3.2 g/a
# Summary of the method: (§2)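 Seeds were sown in sterilized diluvial soil and covered with about 1.5 cm of soil. Compounds, formulated as emulsifiable concentrates and diluted with water, were sprayed evenly over the soil surface at set doses in g/a. Herbicidal effect was scored on a rating scale three weeks later.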
# barnyardgrass [5] = test: as above; conditions: dose 3.2 g/a
# Summary of the method: as §2
# Italian ryegrass [6] = test: as above; conditions: dose 3.2 g/a
# Summary of the method: as §2
# common lambsquater [7] = test: as above; conditions: dose 3.2 g/a
# Summary of the method: as §2
# beadstraw [8] = test: as above; conditions: dose 3.2 g/a
# Summary of the method: as §2
# velvetleaf [9] = test: as above; conditions: dose 3.2 g/a
# Summary of the method: as §2
# common ragweed [10] = test: as above; conditions: dose 3.2 g/a
# Summary of the method: as §2
# common chickweed [11] = test: as above; conditions: dose 3.2 g/a
# Summary of the method: as §2
# giant foxtail [12] = test: as above; conditions: dose 3.2 g/a
# Summary of the method: as §2
# redroot pigweed [13] = test: as above; conditions: dose 3.2 g/a
# Summary of the method: as §2
# water foxtail [14] = test: as above; conditions: dose 3.2 g/a
# Summary of the method: as §2
# transplanted rice = test: Test Example 1: preemergence treatment under submerged conditions, effect on crop; conditions: dose 2.52 g/a
# Summary of the method: (§3)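 Scoring 0 (<5% mortality) to 5 (≥90%) was done three weeks after preemergence application to the water surface of submerged (4 cm) alluvial soil, doses given as g per are. Weeds were seeded and 2.5-leaf rice transplanted on the treatment day; greenhouse at 25–30 °C.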
# large crabgrass [15] = test: Test Example 4: herbicidal effect in foliage treatment; conditions: dose 3.2 g/a, three weeks after application
# Summary of the method: (§4)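 Doses are given in grams per are of applied compound, sprayed as water-diluted emulsifiable concentrate onto foliage of 14-day-old plants grown at 25 to 30° C. Herbicidal activity was assessed visually on a rating scale after three weeks.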
# barnyardgrass [16] = test: as above; conditions: dose 3.2 g/a, three weeks after application
# Summary of the method: as §4
# Italian ryegrass [17] = test: as above; conditions: dose 3.2 g/a, three weeks after application
# Summary of the method: as §4
# common lambsquater [18] = test: as above; conditions: dose 3.2 g/a, three weeks after application
# Summary of the method: as §4
# posumbu knotweed = test: as above; conditions: dose 3.2 g/a, three weeks after application
# Summary of the method: as §4
# beadstraw [19] = test: as above; conditions: dose 3.2 g/a, three weeks after application
# Summary of the method: as §4
# velvetleaf [20] = test: as above; conditions: dose 3.2 g/a, three weeks after application
# Summary of the method: as §4
# common ragweed [21] = test: as above; conditions: dose 3.2 g/a, three weeks after application
# Summary of the method: as §4
# common chickweed [22] = test: as above; conditions: dose 3.2 g/a, three weeks after application
# Summary of the method: as §4
# giant foxtail [23] = test: as above; conditions: dose 3.2 g/a, three weeks after application
# Summary of the method: as §4
# redroot pigweed [24] = test: as above; conditions: dose 3.2 g/a, three weeks after application
# Summary of the method: as §4
# water foxtail [25] = test: as above; conditions: dose 3.2 g/a, three weeks after application
# Summary of the method: as §4
# bulrush [26] = test: Test Example 1: herbicidal effects in preemergence treatment under submerged conditions; conditions: dose 2.52 g/a
# Summary of the method: as §3
# barnyardgrass [27] = test: as above; conditions: dose 2.52 g/a
# Summary of the method: as §3
# ducksalad [28] = test: as above; conditions: dose 2.52 g/a
# Summary of the method: as §3
SMILES,"B: bulrush, herbicidal effect (evaluation scale 0-5) (bulrush [1])","A: barnyardgrass, herbicidal effect (evaluation scale 0-5) (barnyardgrass [2])","C: ducksalad, herbicidal effect (evaluation scale 0-5) (ducksalad [3])","D: large crabgrass, herbicidal effect (evaluation scale 0-5) (large crabgrass [4])","A: barnyardgrass, herbicidal effect (evaluation scale 0-5) (barnyardgrass [5])","H: Italian ryegrass, herbicidal effect (evaluation scale 0-5) (Italian ryegrass [6])","L: common lambsquater, herbicidal effect (evaluation scale 0-5) (common lambsquater [7])","O: beadstraw, herbicidal effect (evaluation scale 0-5) (beadstraw [8])","I: velvetleaf, herbicidal effect (evaluation scale 0-5) (velvetleaf [9])","J: common ragweed, herbicidal effect (evaluation scale 0-5) (common ragweed [10])","N: common chickweed, herbicidal effect (evaluation scale 0-5) (common chickweed [11])","E: giant foxtail, herbicidal effect (evaluation scale 0-5) (giant foxtail [12])","K: redroot pigweed, herbicidal effect (evaluation scale 0-5) (redroot pigweed [13])","G: water foxtail, herbicidal effect (evaluation scale 0-5) (water foxtail [14])","a: transplanted rice, effect on crop (evaluation scale 0-5) (transplanted rice)","D: large crabgrass, herbicidal effect (large crabgrass [15])","A: barnyardgrass, herbicidal effect (barnyardgrass [16])","H: Italian ryegrass, herbicidal effect (Italian ryegrass [17])","L: common lambsquater, herbicidal effect (common lambsquater [18])","M: posumbu knotweed, herbicidal effect (posumbu knotweed)",also measured
O=C1CC2(CCC2)OCN1Cc1ccccc1NS(=O)(=O)C(F)(F)F [II-61],5 (mortality of 90% or above (nearly complete death)),5 (mortality of 90% or above (nearly complete death)),5 (mortality of 90% or above (nearly complete death)),5 (mortality of 90% or above (nearly complete death)),5 (mortality of 90% or above (nearly complete death)),5 (mortality of 90% or above (nearly complete death)),5 (mortality of 90% or above (nearly complete death)),5 (mortality of 90% or above (nearly complete death)),5 (mortality of 90% or above (nearly complete death)),4 (mortality of at least 70% and less than 90%),5 (mortality of 90% or above (nearly complete death)),5 (mortality of 90% or above (nearly complete death)),5 (mortality of 90% or above (nearly complete death)),5 (mortality of 90% or above (nearly complete death)),2 (mortality of at least 20% and less than 40%),4 (mortality of at least 70% and less than 90%),5 (mortality of 90% or above (nearly complete death)),4 (mortality of at least 70% and less than 90%),3 (mortality of at least 40% and less than 70%),4 (mortality of at least 70% and less than 90%),"O: beadstraw, herbicidal effect (beadstraw [19]): 3 (mortality of at least 40% and less than 70%); I: velvetleaf, herbicidal effect (velvetleaf [20]): 5 (mortality of 90% or above (nearly complete death)); J: common ragweed, herbicidal effect (common ragweed [21]): 3 (mortality of at least 40% and less than 70%); N: common chickweed, herbicidal effect (common chickweed [22]): 4 (mortality of at least 70% and less than 90%); E: giant foxtail, herbicidal effect (giant foxtail [23]): 5 (mortality of 90% or above (nearly complete death)); K: redroot pigweed, herbicidal effect (redroot pigweed [24]): 0 (mortality of less than 5% (almost ineffective)); G: water foxtail, herbicidal effect (water foxtail [25]): 5 (mortality of 90% or above (nearly complete death)); B: bulrush, herbicidal effect (evaluation scale 0-5) (bulrush [26]): 5 (mortality of 90% or above (nearly complete death)); A: barnyardgrass, herbicidal effect (evaluation scale 0-5) (barnyardgrass [27]): 5 (mortality of 90% or above (nearly complete death)); C: ducksalad, herbicidal effect (evaluation scale 0-5) (ducksalad [28]): 5 (mortality of 90% or above (nearly complete death))"
CC1(c2ccccc2)CC(=O)N(Cc2ccccc2NS(=O)(=O)C(F)(F)F)CO1 (centres unmarked) [II-57],5 (mortality of 90% or above (nearly complete death)),2 (mortality of at least 20% and less than 40%),5 (mortality of 90% or above (nearly complete death)),3 (mortality of at least 40% and less than 70%),2 (mortality of at least 20% and less than 40%),5 (mortality of 90% or above (nearly complete death)),0 (mortality of less than 5% (almost ineffective)),0 (mortality of less than 5% (almost ineffective)),5 (mortality of 90% or above (nearly complete death)),0 (mortality of less than 5% (almost ineffective)),4 (mortality of at least 70% and less than 90%),5 (mortality of 90% or above (nearly complete death)),0 (mortality of less than 5% (almost ineffective)),5 (mortality of 90% or above (nearly complete death)),0 (mortality of less than 5% (almost ineffective)),2 (mortality of at least 20% and less than 40%),4 (mortality of at least 70% and less than 90%),5 (mortality of 90% or above (nearly complete death)),3 (mortality of at least 40% and less than 70%),3 (mortality of at least 40% and less than 70%),"I: velvetleaf, herbicidal effect (velvetleaf [20]): 3 (mortality of at least 40% and less than 70%); J: common ragweed, herbicidal effect (common ragweed [21]): 3 (mortality of at least 40% and less than 70%); N: common chickweed, herbicidal effect (common chickweed [22]): 4 (mortality of at least 70% and less than 90%); E: giant foxtail, herbicidal effect (giant foxtail [23]): 2 (mortality of at least 20% and less than 40%); K: redroot pigweed, herbicidal effect (redroot pigweed [24]): 0 (mortality of less than 5% (almost ineffective)); G: water foxtail, herbicidal effect (water foxtail [25]): 3 (mortality of at least 40% and less than 70%); B: bulrush, herbicidal effect (evaluation scale 0-5) (bulrush [26]): 5 (mortality of 90% or above (nearly complete death)); A: barnyardgrass, herbicidal effect (evaluation scale 0-5) (barnyardgrass [27]): 5 (mortality of 90% or above (nearly complete death)); C: ducksalad, herbicidal effect (evaluation scale 0-5) (ducksalad [28]): 5 (mortality of 90% or above (nearly complete death))"
